According to PMC6036970, “Natural and redesigned wasp venom peptides with selective antitumoral activity” (Beilstein Journal of Organic Chemistry, 2018):
Where no end group is shown, it is not given here.

What was measured:
[1] = system: human red blood cells; conditions: ref Torres et al. [9]–[10]; cited from earlier work
Excerpt: Table 1 Theoretical physicochemical properties and hemolytic activity of decoralin and its synthetic analogs.^a

[2] = system: MCF-7 breast cancer cells; experiment: MTT cytotoxicity assay on MCF-7 cancer cells; assay type: cell-based; conditions: for IC50 / IC50 against MCF-7: MCF-7, 24 h, read at 570 nm; for IC50 / IC50 against MCF-7 / LD50 / concentration achieving >50% of cancer cell lysis: MTT, triplicate; for IC50: read-out: IC50 against MCF-7; for inhibition of cell viability: 50 μmol L^−1 after 2 h; for inhibition of cancer cell growth: dose of ≈50 μmol L^−1; for LD50 / concentration achieving >50% of cancer cell lysis: MCF-7, after 24 h; for effect on cell viability 2 h post-exposure: after 2 h
Procedure: (§1) MCF-7 cells (ATCC) were maintained in RPMI 1640 medium supplemented with 10% heat inactivated FBS and 100 μg mL^−1 penicillin/10 μg mL^−1 streptomycin. One day before the assays, the cells were plated in 96-well microtiter plates with a density of 2.0 × 10^4 cells/well at 37 °C and 5% CO2. On the next day, cells were treated with peptides serial dilutions (0.09–50 μmol L^–1), incubated in individual microtiter plates for 2 and 24 h and MTT assays were performed after treatment. Human breast epithelial cells MCF-10A (ATCC) were maintained in a mixture of Dulbecco’s Modified Eagle’s Medium and Ham’s F12 nutrient mixture supplemented with 5% inactivated horse serum, 10 μg mL^−1 insulin, 0.02 μg mL^−1 human epidermal growth factor, 0.5 μg mL^−1 hydrocortisone, 0.10 μg mL^−1 choleric toxin, 100 U mL^−1 penicillin, and 100 μg mL^−1 streptomycin. The cells were preincubated for 24 h, plated in 96-well microtiter plates with a density of 2.0 × 10^4 cells/well at 37 °C and 5% CO2. On the next day, cells were treated with peptides serial dilutions (25 to 100 μmol L^−1), incubated in individual microtiter plates for 4 and 24 h and MTT assay was performed after treatment. Experiments were performed in triplicate.
(§2) Briefly, MTT (Sigma-Aldrich) was dissolved in water and filtered to make up a […] solution. 30 μL of this solution were added to all the wells which already contained peptide-treated cells and kept at 37 °C for 45 minutes. Subsequently, the solution was discarded and replaced with 150 μL/well of DMSO and followed by gentle shaking for 15 minutes. Finally, the microplates were read on an ELISA reader at 570 nm. Experiments were performed in triplicate.

[3] = system: Gram-positive bacteria, Gram-negative bacteria, and fungi; conditions: ref Torres et al. [9]; cited from earlier work
[4] = system: MCF-10A normal cells; experiment: MTT cytotoxicity assay on MCF-10A normal cells; assay type: cell-based, human; conditions: for cytotoxicity against MCF-10A normal cells: up to higher concentrations (≈100 μmol L^−1)
Procedure: as §1, §2

[5] = system: MCF-7 cells; experiment: AFM measurement of cell membrane roughness; assay type: cell-based; conditions: MCF-7, 50 μmol L^−1, 24 h, AFM contact mode, Ra and Rq
Procedure: The AFM imaging of MCF-7 cells untreated (control) and treated with peptide (50 μmol L^−1 solutions of Dec-NH2 and [Leu]^8-Dec-NH2, which presented low activity when compared to other analogs and was used here as a treated control) was performed using an Agilent Technologies 5500 AFM/SPM microscope that was in contact mode and a Nanosensors™ PPP-CONT probe (NanoSensors; PPP-Cont-20, PointProbe-Plus Silicon-SPM-Sensor). The material properties and dimensions of the AFM tips used in this experiment were as follows: resonance frequency of 6–21 kHz, force constant of 0.02–0.77 N m^−1, cantilever length of 450 ± 10 μm, cantilever width of 50 ± 7.5 μm, cantilever thickness of 2 ± 1 μm, tip height of 10–15 μm and resistivity of 0.01–0.02 Ω cm. The assays were performed in triplicate; image processing and roughness determinations were performed with the aid of the Gwyddion software (http://gwyddion.net/download.php). In order to compare the cell surface, we used two roughness parameters, the mean roughness (Ra) and the mean square of Z data (Rq), where N is the difference between the highest and the lowest points in the analyzed area. […]
The root mean square of the Z values Rq is the standard deviation of the N values in the area analyzed and is given by Equation 2: […]

Substance | MHC (maximal non-hemolytic concentration) [1] [µmol/L] | IC50 [2] [µM] | IC50 against MCF-7 [2] [µM] | inhibition of cancer cell growth ([2]; MCF-7, MTT) | further results
SLLSLIRKLIW-NH2 [[Trp]^11-Dec-NH2] | 1.56 | 25 |  |  | 
SLLSLFRKLI-NH2 [[Phe]^6-Des[Thr]^11-Dec-NH2, synthetic analog of Dec-NH2] | 12.50 |  | 50.0 | substantial inhibition | inhibition of cell viability ([2]; MCF-7, MTT): inhibited cell viability the most
SLLSLIRLLIT-NH2 [[Leu]^8-Dec-NH2] | 50.00 | > 50 |  |  | antimicrobial activity (order of magnitude) [3]: ~10^1 μmol L^−1; cytotoxicity towards normal MCF-10A cells ([4]; lowest concentration tested (25 μmol L^−1)): cytotoxic; change of membrane roughness [5]: did not significantly change membrane roughness; activity against MCF-7 cells compared to the negative control ([2]; MCF-7, MTT): did not present significant activity
SFLSLIRKLIT-NH2 [[Phe]^2-Dec-NH2, synthetic analog of Dec-NH2] | 3.12 |  | 50.0 | substantial inhibition | inhibition of cell viability ([2]; MCF-7, MTT): inhibited cell viability the most
SLLSLIRKLIT-NH2 [Dec-NH2] | 1.56 | 12.5 |  |  | cytotoxicity against MCF-10A normal cells [4]: no significant cytotoxicity; LD50 / concentration achieving >50% of cancer cell lysis [2]: 12.5 µmol/L
SLLSLFRKLIT-NH2 [[Phe]^6-Dec-NH2] | 3.12 | > 50 |  |  | effect on cell viability 2 h post-exposure ([2]; MCF-7, MTT): did not show significant inhibition
SLLPLIRKLIT-NH2 [[Pro]^4-Dec-NH2] | 12.50 | 25 |  |  | 
SLLSLIRKLLT-NH2 [[Leu]^10-Dec-NH2] | 25.00 | 12.5 |  |  | cytotoxicity against MCF-10A normal cells [4]: no significant cytotoxicity; LD50 / concentration achieving >50% of cancer cell lysis [2]: 12.5 µmol/L
RLLSLIRKLIT-NH2 [[Arg]^1-Dec-NH2, synthetic analog of Dec-NH2] | 25.00 |  | 50.0 | substantial inhibition | effect on cell viability 2 h post-exposure ([2]; MCF-7, MTT): significant decreased cell viability
